# Results taken from paper PMC12430443, “Discovery of Novel Benzamide-Based Sigma-1 Receptor Agonists with Enhanced Selectivity and Safety” (Molecules, 2025).
# Tests used:
# [1] = Plasma stability in mouse plasma; assay type: in vitro ADME; conditions: male CD-1 mouse plasma, 37 °C, read-out: Mouse plasma t1/2 (converted)
# Experimental: Solubility and stability remained unchanged in simulated gastric fluid (SGF) and simulated intestinal fluid (SIF), which mimic gastrointestinal digestion. Intestinal permeability was assessed using a two-chamber system with apical (A, pH 6.5) and basolateral (B, pH 7.4) compartments, representing the luminal and blood/mesenteric lymph sides of the gastrointestinal tract, respectively. […] The efflux ratios for both compounds ranged between 1 and 2, indicating improved permeability relative to the reference compound 1.
# Plasma stability was evaluated by M2SV (Lille, France) in duplicate. Male CD-1 mouse plasma (lithium-heparinized; Sera Laboratories International Ltd. BioIVT, West Sussex, UK) was pre-incubated for 10 min at 37 °C before addition of the test compound (final concentration 10 μM, 0.1% DMSO). At 0, 60, 1440, and 2880 min, aliquots were transferred to chilled tubes containing acetonitrile and propranolol (1 μM) as internal standard.
# S1R-BiP complex = target: T1, S1R-BiP complex (Cricetulus griseus, UniProt A0A3L7I3A5); assay: S1R-BiP complex dissociation, co-immunoprecipitation and BiP ELISA in CHO cells; assay type: cell-based; conditions: for Dissociation of the S1R-BiP complex (in words): 1 and 10 µM, 30 min incubation, CHO cells, n = 6
# T1 construct: host or cells: CHO cells
# Experimental: The interaction between S1R and BiP provides a reliable assay to identify S1R ligands by monitoring the dynamics of the S1R-BiP complex. In this assay, the known S1R agonist PRE-084 and antagonist NE-100 were used as controls (Figure 3).
# The ability of the compounds to promote dissociation of the S1R–BiP complex was assessed by Amylgen (Montferrier-sur-Lez, France) as described in [22, 23]. CHO cells were treated with the test compounds for 30 min at 37 °C, followed by crosslinking with dithiobis(succinimidyl propionate) (DSP; Thermo Scientific, Waltham, MA, USA). Cells were lysed after 15 min on ice, and the lysates were centrifuged. Supernatants were incubated overnight at 4 °C with an anti-S1R antibody (Abcam, Cambridge, UK), and then with Protein A-Sepharose (Invitrogen). After the first centrifugation, pellets were resuspended in radioimmunoprecipitation assay (RIPA) buffer, centrifuged again, and resuspended in 2× sample buffer/bMCE buffer. Following a third centrifugation, the supernatants were analyzed for BiP immunoreactivity using an ELISA kit (SEC343Mu, USCNK Life Sciences, Wuhan, China).
# Figure 3 In vitro evaluation of agonist activity of compounds 2, 3, and 6: The effects of compounds 2, 3, and 6 at 1 and 10 µM on the S1R-BiP association after 30 min of incubation were analyzed by co-immunoprecipitation using an anti-S1R antibody (red). BiP levels were quantified by ELISA. PRE-084 (white) and NE-100 (black) served as the reference agonist and antagonist, respectively (10 µM). Agonist activity was confirmed by its blockade with NE-100 (black hatching). […] Data represent the mean ± SEM from n = 6 per condition. Statistical significance was assessed using Dunnett’s test: *** p < 0.0001, * p < 0.05 vs. untreated control; ### p < 0.0001, # p < 0.05 for NE-100 blockade.
# D4.4 = D4.4 (Homo sapiens, UniProt P21917); assay: Off-target panel of recombinant human receptors; assay type: cell-based; conditions: 10 µM, duplicate; % inhibition of reference agonist activity
# Experimental: (§1) Among the synthesized compounds, four derivatives were selected based on their affinity and selectivity profiles. […] The remaining compounds (2, 3, 6, and 7) were assessed for their agonist and antagonist activities across a panel of 58 receptors relevant to CNS disorders, including serotonin, adenosine, adrenergic, cannabinoid, dopamine, histamine, and muscarinic receptors. These assays were conducted at a concentration of 10 µM, in duplicate, utilizing aequorin [19], cAMP HTRF™ [20], and GTPγS binding assays, as detailed in Table 2. […] Specifically, compound 6 antagonized four receptors (5-HT2A, 5-HT2C, α1a, H1), while compound 7 was active against five receptors (5-HT2A, 5-HT3, α1a, H1, M1).
# (§2) Agonist and antagonist activities of the test compound are expressed as the percentage of the activity of the reference agonist at its EC100 concentration or the percentage of inhibition of the reference agonist activity at its EC80 concentration, respectively.
# adrenergic α2a receptor = adrenergic α2a receptor (Homo sapiens, UniProt P08913); assay: Off-target panel, GTPγS binding assay; assay type: biochemical; conditions: 10 µM, duplicate; % inhibition of reference agonist activity
# Experimental: as §1, with “M1). […]” for “M1).”
# as §2
# (§3) For the GTPγS scintillation proximity assay, optimized specific conditions were determined for each receptor. […] were estimated with a PerkinElmer TopCount reader.
# adrenergic α2b receptor = adrenergic α2b receptor (Homo sapiens, UniProt P18089); assay: Off-target panel, GTPγS binding assay; assay type: biochemical; conditions: 10 µM, duplicate; % inhibition of reference agonist activity
# Experimental: as §1, with “M1). […]” for “M1).”
# as §2, §3
# adrenergic α1b receptor = adrenergic α1b receptor (Homo sapiens, UniProt P35368); assay: Off-target panel, aequorin functional assay; assay type: cell-based; conditions: 10 µM, duplicate; % inhibition of reference agonist activity
# Experimental: as §1
# (§4) Rapidly, the tests were performed by Euroscreen (https://euroscreenfast.com/) with recombinant human G-coupled receptor-expressing cell lines using aequorin functional assays for serotonin 5-HT2A, 5-HT2B, 5-HT2C, 5-HT3, and 5-HT5A, adrenergic α1a and α1b, angiotensin AT1, cholesistokinin CCFK1, endothelin ETA, histamine H1, muscarinic M1 and M3, neurokinin NK1 and NK2, vasopressin V1a, and vasoactive intestinal peptide VPAC1 receptor analysis. Then, cAMP HTRF^TM assays were used to analyze serotonin 5-HT1A, 5-HT4E, 5-HT6, and 5-HT7, adenosine A1, A2A, and A3, adrenergic β1 and β2, cannabinoid CB1, dopamine D1, histamine H2, and neuropeptide Y NPY receptors. GTPγS^35 assays were used to analyze serotonin 5-HT1B, adrenergic α2a and α2b, dopamine D2, muscarinic M2 and M4, opioid δ, κ and µ, and somatostatine SST4 receptors.
# as §2
# (§5) For the aequorin assays, different cell lines co-expressing the receptors were grown in specific culture media and incubated for 4 h with coelenterazine h. For agonist testing, cell suspensions were mixed with test or reference agonists in a 96-well plate. For antagonist testing, the reference agonist at its EC80 (final concentration) was injected to the mix the containing cells and the tested compound. The resulting emission of light was recorded using the Hamamatsu Functional Drug Screening System 6000 [19].
# adrenergic α1a receptor = adrenergic α1a receptor (Homo sapiens, UniProt P35348); assay: Off-target panel, aequorin functional assay; assay type: cell-based; conditions: 10 µM, duplicate; % inhibition of reference agonist activity
# Experimental: as §1, §4, §2, §5
# serotonin 5-HT3 receptor = serotonin 5-HT3 receptor (Homo sapiens, UniProt P46098); assay: Off-target panel, aequorin functional assay; assay type: cell-based; conditions: 10 µM, duplicate; % inhibition of reference agonist activity
# Experimental: as §1, §4, §2, §5
# histamine H1 receptor = histamine H1 receptor (Homo sapiens, UniProt P35367); assay: Off-target panel, aequorin functional assay; assay type: cell-based; conditions: 10 µM
# Experimental: as §1, §4, §2, §5
# T1 sequence (A0A3L7I3A5 1-223, one chain of several): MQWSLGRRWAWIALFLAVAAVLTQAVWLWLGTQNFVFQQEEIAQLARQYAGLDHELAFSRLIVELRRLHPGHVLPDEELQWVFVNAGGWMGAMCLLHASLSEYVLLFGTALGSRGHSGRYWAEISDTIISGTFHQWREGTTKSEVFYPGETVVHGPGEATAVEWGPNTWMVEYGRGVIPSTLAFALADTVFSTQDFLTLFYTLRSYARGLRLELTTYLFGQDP
# Sequence of adrenergic α2b receptor (P18089 whole entry): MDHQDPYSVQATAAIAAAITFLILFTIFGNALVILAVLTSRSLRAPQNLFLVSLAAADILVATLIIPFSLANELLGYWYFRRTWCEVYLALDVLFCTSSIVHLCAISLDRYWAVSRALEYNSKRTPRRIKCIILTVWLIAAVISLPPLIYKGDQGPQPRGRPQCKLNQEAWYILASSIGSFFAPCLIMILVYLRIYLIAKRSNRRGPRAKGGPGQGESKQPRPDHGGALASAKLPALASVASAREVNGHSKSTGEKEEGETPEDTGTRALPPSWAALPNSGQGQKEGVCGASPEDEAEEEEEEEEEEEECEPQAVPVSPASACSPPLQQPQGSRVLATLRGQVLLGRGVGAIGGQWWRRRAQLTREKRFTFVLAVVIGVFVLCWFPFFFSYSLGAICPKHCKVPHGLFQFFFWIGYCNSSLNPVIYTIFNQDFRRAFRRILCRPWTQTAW
# Sequence of histamine H1 receptor (P35367 whole entry): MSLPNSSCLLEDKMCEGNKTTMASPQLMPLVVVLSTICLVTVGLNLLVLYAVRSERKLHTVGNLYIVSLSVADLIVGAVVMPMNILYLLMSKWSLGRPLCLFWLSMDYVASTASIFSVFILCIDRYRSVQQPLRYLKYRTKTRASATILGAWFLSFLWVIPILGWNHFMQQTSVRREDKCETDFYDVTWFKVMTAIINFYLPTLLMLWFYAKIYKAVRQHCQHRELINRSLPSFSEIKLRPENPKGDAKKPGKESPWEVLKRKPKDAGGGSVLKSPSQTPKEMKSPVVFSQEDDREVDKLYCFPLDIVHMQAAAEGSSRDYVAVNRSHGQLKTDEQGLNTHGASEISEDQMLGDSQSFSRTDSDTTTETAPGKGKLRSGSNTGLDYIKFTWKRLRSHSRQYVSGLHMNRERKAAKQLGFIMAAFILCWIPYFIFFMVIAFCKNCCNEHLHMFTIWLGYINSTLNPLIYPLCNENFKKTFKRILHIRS
# Sequence of adrenergic α1a receptor (P35348 whole entry): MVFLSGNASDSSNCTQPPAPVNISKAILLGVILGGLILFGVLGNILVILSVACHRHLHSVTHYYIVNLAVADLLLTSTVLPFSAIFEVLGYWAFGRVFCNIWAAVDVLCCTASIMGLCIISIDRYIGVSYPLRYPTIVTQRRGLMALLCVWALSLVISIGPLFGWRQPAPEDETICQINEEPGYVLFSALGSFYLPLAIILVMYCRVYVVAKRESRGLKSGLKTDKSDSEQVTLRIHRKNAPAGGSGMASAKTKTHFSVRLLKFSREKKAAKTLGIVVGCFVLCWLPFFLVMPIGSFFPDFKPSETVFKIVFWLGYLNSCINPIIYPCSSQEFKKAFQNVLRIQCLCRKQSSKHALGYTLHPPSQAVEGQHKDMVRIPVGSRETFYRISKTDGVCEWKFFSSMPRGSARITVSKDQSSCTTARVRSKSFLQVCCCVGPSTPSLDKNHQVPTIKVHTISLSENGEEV
# Sequence of D4.4 (P21917 whole entry): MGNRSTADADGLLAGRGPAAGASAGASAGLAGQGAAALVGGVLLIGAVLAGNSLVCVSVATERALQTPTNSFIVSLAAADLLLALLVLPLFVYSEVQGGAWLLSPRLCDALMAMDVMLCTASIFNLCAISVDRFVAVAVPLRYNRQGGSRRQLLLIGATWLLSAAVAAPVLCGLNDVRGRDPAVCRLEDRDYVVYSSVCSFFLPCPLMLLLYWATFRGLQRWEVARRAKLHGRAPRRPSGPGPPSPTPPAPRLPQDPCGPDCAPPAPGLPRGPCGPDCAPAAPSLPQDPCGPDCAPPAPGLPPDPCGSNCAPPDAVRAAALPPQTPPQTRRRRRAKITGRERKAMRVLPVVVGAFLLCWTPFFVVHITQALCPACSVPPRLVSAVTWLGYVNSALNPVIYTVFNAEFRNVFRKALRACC
# Sequence of adrenergic α2a receptor (P08913 whole entry): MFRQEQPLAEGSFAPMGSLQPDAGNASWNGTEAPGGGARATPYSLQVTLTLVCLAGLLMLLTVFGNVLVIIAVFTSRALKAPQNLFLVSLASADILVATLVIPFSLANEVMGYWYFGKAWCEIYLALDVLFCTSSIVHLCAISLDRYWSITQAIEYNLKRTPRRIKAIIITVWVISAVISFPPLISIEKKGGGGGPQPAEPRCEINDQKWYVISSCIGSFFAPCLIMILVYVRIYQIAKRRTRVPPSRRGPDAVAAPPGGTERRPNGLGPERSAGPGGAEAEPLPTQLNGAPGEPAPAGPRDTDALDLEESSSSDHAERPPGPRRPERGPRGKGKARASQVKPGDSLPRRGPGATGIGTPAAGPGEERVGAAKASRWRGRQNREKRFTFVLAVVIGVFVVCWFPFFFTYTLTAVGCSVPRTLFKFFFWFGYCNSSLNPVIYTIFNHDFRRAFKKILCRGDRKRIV
# Sequence of adrenergic α1b receptor (P35368 whole entry): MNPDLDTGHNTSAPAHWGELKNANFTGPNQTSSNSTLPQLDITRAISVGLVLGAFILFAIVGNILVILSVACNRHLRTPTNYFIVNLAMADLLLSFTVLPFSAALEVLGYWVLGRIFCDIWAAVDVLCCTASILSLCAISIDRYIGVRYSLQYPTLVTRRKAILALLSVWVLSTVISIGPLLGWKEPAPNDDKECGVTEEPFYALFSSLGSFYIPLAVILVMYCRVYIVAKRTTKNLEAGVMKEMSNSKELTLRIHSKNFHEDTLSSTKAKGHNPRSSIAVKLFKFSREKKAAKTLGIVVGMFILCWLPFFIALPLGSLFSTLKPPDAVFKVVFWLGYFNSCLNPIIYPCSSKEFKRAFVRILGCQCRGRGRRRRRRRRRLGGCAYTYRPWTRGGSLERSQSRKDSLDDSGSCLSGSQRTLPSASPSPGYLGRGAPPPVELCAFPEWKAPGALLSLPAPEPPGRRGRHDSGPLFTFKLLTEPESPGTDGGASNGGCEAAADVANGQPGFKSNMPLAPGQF
# Sequence of serotonin 5-HT3 receptor (P46098 24-478): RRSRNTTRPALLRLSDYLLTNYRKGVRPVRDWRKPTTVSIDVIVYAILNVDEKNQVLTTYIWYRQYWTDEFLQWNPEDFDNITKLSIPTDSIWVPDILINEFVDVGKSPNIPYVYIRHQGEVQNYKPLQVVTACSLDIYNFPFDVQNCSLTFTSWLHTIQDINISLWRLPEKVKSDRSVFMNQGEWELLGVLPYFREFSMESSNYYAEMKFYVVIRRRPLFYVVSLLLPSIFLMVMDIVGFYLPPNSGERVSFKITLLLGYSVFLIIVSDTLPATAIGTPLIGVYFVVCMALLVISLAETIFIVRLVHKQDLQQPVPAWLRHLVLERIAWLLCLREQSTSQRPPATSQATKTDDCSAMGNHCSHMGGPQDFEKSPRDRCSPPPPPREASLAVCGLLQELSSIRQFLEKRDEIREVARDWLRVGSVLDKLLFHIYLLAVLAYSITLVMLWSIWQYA
Compound,half-life at 10 µM [1],Dissociation of the S1R-BiP complex (in words) (S1R-BiP complex),Dissociation of S1R-BiP complex in the presence of NE-100 (in words) (S1R-BiP complex; co-treatment with NE-100 (10 µM)),D4.4 [b] antagonist activity (D4.4),α2a [b] antagonist activity (adrenergic α2a receptor),α2b [b] antagonist activity (adrenergic α2b receptor),α1b [b] antagonist activity (adrenergic α1b receptor),α1a [b] antagonist activity (adrenergic α1a receptor),5-HT3 [b] antagonist activity (serotonin 5-HT3 receptor),H1 antagonist activity (in words) (histamine H1 receptor)
"CN(CCC(=O)NCc1cccc(Cl)c1)Cc1ccccc1 [Compound 2, 3-(Benzylmethylamino)-N-(3-chlorobenzyl)propanamide]",2100 min,"significant, dose-dependent dissociation",completely inhibited,64%,61%,59%,70%,64%,68%,
"CN(CCC(=O)NCc1ccc(C#N)cc1)Cc1ccccc1 [Compound 6, 3-(Benzylmethylamino)-N-(4-cyanobenzyl)propanamide]",> 2880 min,slight and less significant reduction,,,,,,,,antagonized
